Calls of active or inactive are those of the source.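 The calls were made as follows: active = no phosphorylated p38 MAPK band on western blot after an ER stress trigger, matching the untreated control; inactive = the rest.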
system: CSM14.1 cells, thapsigargin, phospho-p38 Western blot; test: p38 MAPK activation blockade under ER stress – CSM14.1 cells, thapsigargin, Western blot, mechanism study for ER stress cell death project, late-stage follow-up (AID 1358)

SMILES | outcome
O=C1CC(c2ccccc2)CC2=C1C(c1c(F)cccc1Cl)Nc1ccccc1N2 (stereo unspecified) | active
COc1ccc(C2CC(=O)C3=C(C2)Nc2ccccc2NC3c2cccc(C(F)(F)F)c2)cc1OC (stereo unspecified) | active
COc1ccc(C2CC(=O)C3=C(C2)Nc2ccccc2NC3c2cc(C)ccc2C)cc1 (stereo unspecified) | active
CSc1ccc(C2Nc3ccccc3NC3=C2C(=O)CC(c2ccccc2)C3)cc1 (stereo unspecified) | active
CCOc1cc(C2Nc3ccccc3NC3=C2C(=O)CC(c2ccc(OC)cc2)C3)cc(Cl)c1O (stereo unspecified) | active
CCCOc1ccc(C2Nc3ccccc3NC3=C2C(=O)CC(c2ccc(OC)c(OC)c2)C3)cc1 (stereo unspecified) | active
CCOc1cccc(C2Nc3ccccc3NC3=C2C(=O)CC(c2ccc(OC)cc2)C3)c1 (stereo unspecified) | active
COc1ccc(C2CC(=O)C3=C(C2)Nc2ccccc2NC3c2ccccc2C(F)(F)F)cc1OC (stereo unspecified) | active
CC1(C)CC(=O)C2=C(C1)Nc1ccccc1NC2c1ccc(-c2ccccc2)cc1 (stereo unspecified) | active
COc1ccc(C2CC(=O)C3=C(C2)Nc2ccccc2NC3c2cccc(Oc3ccccc3)c2)cc1OC (stereo unspecified) | active
COc1ccc(C2CC(=O)C3=C(C2)Nc2ccccc2NC3c2cccc(Br)c2)cc1OC (stereo unspecified) | active
